Results from ChEMBL document CHEMBL3860082, “Effect of lysine methylation and acetylation on the RNA recognition and cellular uptake of Tat-derived peptides” (Bioorg Med Chem, 2016).
pKd: −log10 of the molar value.

How the values were obtained:
[1] = Cytotoxicity against human Jurkat cells assessed as reduction in cell viability at 120 uM after 4 hrs by WST1 assay; type: toxicity, cell-based
[2] = Drug uptake in human Jurkat cells assessed as mean fluorescence intensity at 120 uM after 15 mins in presence of bovine serum by propidium iodide staining based FACS analysis; type: ADME, cell-based; details: 0.25 h
[3] = Drug uptake in human Jurkat cells assessed as mean fluorescence intensity at 7 uM after 15 mins in presence of bovine serum by propidium iodide staining based FACS analysis; type: ADME, cell-based; details: 0.25 h
[4] = Competitive binding affinity to fluorescein-labeled HIV TAR RNA in presence of Escherichia coli tRNA by electrophoretic mobility shift assay; set-up: species or system Human immunodeficiency virus; details: read-out: Kd(app)

N=C(N)NCCC[C@H](NC(=O)[C@H](CCCNC(=N)N)NC(=O)[C@H](CCCNC(=N)N)NC(=O)[C@H](CCC(N)=O)NC(=O)[C@H](CCCNC(=N)N)NC(=O)[C@H](CCCNC(=N)N)NC(=O)[C@H](CCCCN)NC(=O)[C@H](CCCCN)NC(=O)[C@H](CCCNC(=N)N)NC(=O)CNC(=O)[C@H](Cc1ccc(O)cc1)NC(=O)CCNC(=O)c1ccc2c(c1)C1(OC2=O)c2ccc(O)cc2Oc2cc(O)ccc21)C(N)=O
Activity [1]: Non-Toxic
Drug uptake [2]: Active
Drug uptake [3]: Active

C[N+](C)(C)CCCC[C@H](NC(=O)[C@H](CCCCN)NC(=O)[C@H](CCCNC(=N)N)NC(=O)CNC(=O)[C@H](Cc1ccc(O)cc1)NC(=O)CCNC(=O)c1ccc2c(c1)C1(OC2=O)c2ccc(O)cc2Oc2cc(O)ccc21)C(=O)N[C@@H](CCCNC(=N)N)C(=O)N[C@@H](CCCNC(=N)N)C(=O)N[C@@H](CCC(N)=O)C(=O)N[C@@H](CCCNC(=N)N)C(=O)N[C@@H](CCCNC(=N)N)C(=O)N[C@@H](CCCNC(=N)N)C(=O)O
Activity [1]: Non-Toxic
Drug uptake [2]: Active

CC(=O)N[C@@H](Cc1ccc(O)cc1)C(=O)NCC(=O)N[C@@H](CCCNC(=N)N)C(=O)N[C@@H](CCCCN(C)C)C(=O)N[C@@H](CCCCN)C(=O)N[C@@H](CCCNC(=N)N)C(=O)N[C@@H](CCCNC(=N)N)C(=O)N[C@@H](CCC(N)=O)C(=O)N[C@@H](CCCNC(=N)N)C(=O)N[C@@H](CCCNC(=N)N)C(=O)N[C@@H](CCCNC(=N)N)C(N)=O
pKd [4]: 6.74

CN(C)CCCC[C@H](NC(=O)[C@H](CCCNC(=N)N)NC(=O)CNC(=O)[C@H](Cc1ccc(O)cc1)NC(=O)CCNC(=O)c1ccc2c(c1)C1(OC2=O)c2ccc(O)cc2Oc2cc(O)ccc21)C(=O)N[C@@H](CCCCN)C(=O)N[C@@H](CCCNC(=N)N)C(=O)N[C@@H](CCCNC(=N)N)C(=O)N[C@@H](CCC(N)=O)C(=O)N[C@@H](CCCNC(=N)N)C(=O)N[C@@H](CCCNC(=N)N)C(=O)N[C@@H](CCCNC(=N)N)C(=O)O
Activity [1]: Non-Toxic
Drug uptake [2]: Active
Drug uptake [3]: Active

C[N+](C)(C)CCCC[C@H](NC(=O)[C@H](CCCNC(=N)N)NC(=O)CNC(=O)[C@H](Cc1ccc(O)cc1)NC(=O)CCNC(=O)c1ccc2c(c1)C1(OC2=O)c2ccc(O)cc2Oc2cc(O)ccc21)C(=O)N[C@@H](CCCCN)C(=O)N[C@@H](CCCNC(=N)N)C(=O)N[C@@H](CCCNC(=N)N)C(=O)N[C@@H](CCC(N)=O)C(=O)N[C@@H](CCCNC(=N)N)C(=O)N[C@@H](CCCNC(=N)N)C(=O)N[C@@H](CCCNC(=N)N)C(=O)O
Activity [1]: Non-Toxic
Drug uptake [2]: Active
Drug uptake [3]: Active

CC(=O)NCCCC[C@H](NC(=O)[C@H](CCCNC(=N)N)NC(=O)CNC(=O)[C@H](Cc1ccc(O)cc1)NC(C)=O)C(=O)N[C@@H](CCCCN)C(=O)N[C@@H](CCCNC(=N)N)C(=O)N[C@@H](CCCNC(=N)N)C(=O)N[C@@H](CCC(N)=O)C(=O)N[C@@H](CCCNC(=N)N)C(=O)N[C@@H](CCCNC(=N)N)C(=O)N[C@@H](CCCNC(=N)N)C(N)=O
pKd [4]: 6.36

CC(=O)N[C@@H](Cc1ccc(O)cc1)C(=O)NCC(=O)N[C@@H](CCCNC(=N)N)C(=O)N[C@@H](CCCC[N+](C)(C)C)C(=O)N[C@@H](CCCCN)C(=O)N[C@@H](CCCNC(=N)N)C(=O)N[C@@H](CCCNC(=N)N)C(=O)N[C@@H](CCC(N)=O)C(=O)N[C@@H](CCCNC(=N)N)C(=O)N[C@@H](CCCNC(=N)N)C(=O)N[C@@H](CCCNC(=N)N)C(N)=O
pKd [4]: 6.77

CNCCCC[C@H](NC(=O)[C@H](CCCCN)NC(=O)[C@H](CCCNC(=N)N)NC(=O)CNC(=O)[C@H](Cc1ccc(O)cc1)NC(=O)CCNC(=O)c1ccc2c(c1)C1(OC2=O)c2ccc(O)cc2Oc2cc(O)ccc21)C(=O)N[C@@H](CCCNC(=N)N)C(=O)N[C@@H](CCCNC(=N)N)C(=O)N[C@@H](CCC(N)=O)C(=O)N[C@@H](CCCNC(=N)N)C(=O)N[C@@H](CCCNC(=N)N)C(=O)N[C@@H](CCCNC(=N)N)C(=O)O
Activity [1]: Non-Toxic

CC(=O)NCCCC[C@H](NC(=O)[C@H](CCCCN)NC(=O)[C@H](CCCNC(=N)N)NC(=O)CNC(=O)[C@H](Cc1ccc(O)cc1)NC(=O)CCNC(=O)c1ccc2c(c1)C1(OC2=O)c2ccc(O)cc2Oc2cc(O)ccc21)C(=O)N[C@@H](CCCNC(=N)N)C(=O)N[C@@H](CCCNC(=N)N)C(=O)N[C@@H](CCC(N)=O)C(=O)N[C@@H](CCCNC(=N)N)C(=O)N[C@@H](CCCNC(=N)N)C(=O)N[C@@H](CCCNC(=N)N)C(=O)O
Activity [1]: Non-Toxic

CC(=O)NCCCC[C@H](NC(=O)[C@H](CCCNC(=N)N)NC(=O)CNC(=O)[C@H](Cc1ccc(O)cc1)NC(=O)CCNC(=O)c1ccc2c(c1)C1(OC2=O)c2ccc(O)cc2Oc2cc(O)ccc21)C(=O)N[C@@H](CCCCN)C(=O)N[C@@H](CCCNC(=N)N)C(=O)N[C@@H](CCCNC(=N)N)C(=O)N[C@@H](CCC(N)=O)C(=O)N[C@@H](CCCNC(=N)N)C(=O)N[C@@H](CCCNC(=N)N)C(=O)N[C@@H](CCCNC(=N)N)C(=O)O
Activity [1]: Non-Toxic

CNCCCC[C@H](NC(=O)[C@H](CCCNC(=N)N)NC(=O)CNC(=O)[C@H](Cc1ccc(O)cc1)NC(=O)CCNC(=O)c1ccc2c(c1)C1(OC2=O)c2ccc(O)cc2Oc2cc(O)ccc21)C(=O)N[C@@H](CCCCN)C(=O)N[C@@H](CCCNC(=N)N)C(=O)N[C@@H](CCCNC(=N)N)C(=O)N[C@@H](CCC(N)=O)C(=O)N[C@@H](CCCNC(=N)N)C(=O)N[C@@H](CCCNC(=N)N)C(=O)N[C@@H](CCCNC(=N)N)C(=O)O
Activity [1]: Non-Toxic
Drug uptake [2]: Active
Drug uptake [3]: Active

CC(=O)N[C@@H](Cc1ccc(O)cc1)C(=O)NCC(=O)N[C@@H](CCCNC(=N)N)C(=O)N[C@@H](CCCCN)C(=O)N[C@@H](CCCCN(C)C)C(=O)N[C@@H](CCCNC(=N)N)C(=O)N[C@@H](CCCNC(=N)N)C(=O)N[C@@H](CCC(N)=O)C(=O)N[C@@H](CCCNC(=N)N)C(=O)N[C@@H](CCCNC(=N)N)C(=O)N[C@@H](CCCNC(=N)N)C(N)=O
pKd [4]: 6.55

CN(C)CCCC[C@H](NC(=O)[C@H](CCCCN)NC(=O)[C@H](CCCNC(=N)N)NC(=O)CNC(=O)[C@H](Cc1ccc(O)cc1)NC(=O)CCNC(=O)c1ccc2c(c1)C1(OC2=O)c2ccc(O)cc2Oc2cc(O)ccc21)C(=O)N[C@@H](CCCNC(=N)N)C(=O)N[C@@H](CCCNC(=N)N)C(=O)N[C@@H](CCC(N)=O)C(=O)N[C@@H](CCCNC(=N)N)C(=O)N[C@@H](CCCNC(=N)N)C(=O)N[C@@H](CCCNC(=N)N)C(=O)O
Activity [1]: Non-Toxic
Drug uptake [2]: Active

CC(=O)NCCCC[C@H](NC(=O)[C@H](CCCCN)NC(=O)[C@H](CCCNC(=N)N)NC(=O)CNC(=O)[C@H](Cc1ccc(O)cc1)NC(C)=O)C(=O)N[C@@H](CCCNC(=N)N)C(=O)N[C@@H](CCCNC(=N)N)C(=O)N[C@@H](CCC(N)=O)C(=O)N[C@@H](CCCNC(=N)N)C(=O)N[C@@H](CCCNC(=N)N)C(=O)N[C@@H](CCCNC(=N)N)C(N)=O
pKd [4]: 6.43

CNCCCC[C@H](NC(=O)[C@H](CCCCN)NC(=O)[C@H](CCCNC(=N)N)NC(=O)CNC(=O)[C@H](Cc1ccc(O)cc1)NC(C)=O)C(=O)N[C@@H](CCCNC(=N)N)C(=O)N[C@@H](CCCNC(=N)N)C(=O)N[C@@H](CCC(N)=O)C(=O)N[C@@H](CCCNC(=N)N)C(=O)N[C@@H](CCCNC(=N)N)C(=O)N[C@@H](CCCNC(=N)N)C(N)=O
pKd [4]: 6.39

CNCCCC[C@H](NC(=O)[C@H](CCCNC(=N)N)NC(=O)CNC(=O)[C@H](Cc1ccc(O)cc1)NC(C)=O)C(=O)N[C@@H](CCCCN)C(=O)N[C@@H](CCCNC(=N)N)C(=O)N[C@@H](CCCNC(=N)N)C(=O)N[C@@H](CCC(N)=O)C(=O)N[C@@H](CCCNC(=N)N)C(=O)N[C@@H](CCCNC(=N)N)C(=O)N[C@@H](CCCNC(=N)N)C(N)=O
pKd [4]: 6.58

CC(=O)N[C@@H](Cc1ccc(O)cc1)C(=O)NCC(=O)N[C@@H](CCCNC(=N)N)C(=O)N[C@@H](CCCCN)C(=O)N[C@@H](CCCC[N+](C)(C)C)C(=O)N[C@@H](CCCNC(=N)N)C(=O)N[C@@H](CCCNC(=N)N)C(=O)N[C@@H](CCC(N)=O)C(=O)N[C@@H](CCCNC(=N)N)C(=O)N[C@@H](CCCNC(=N)N)C(=O)N[C@@H](CCCNC(=N)N)C(N)=O
pKd [4]: 6.22
